{
  "source": "patent US8158828B2",
  "about": "“Nuclear receptor binding agents” (priority 2005, dated 2012)",
  "key": {"ER-α": {"target": "T1, ER-α (Rattus norvegicus, UniProt P06211)", "T1 sequence (P06211 1-600)": "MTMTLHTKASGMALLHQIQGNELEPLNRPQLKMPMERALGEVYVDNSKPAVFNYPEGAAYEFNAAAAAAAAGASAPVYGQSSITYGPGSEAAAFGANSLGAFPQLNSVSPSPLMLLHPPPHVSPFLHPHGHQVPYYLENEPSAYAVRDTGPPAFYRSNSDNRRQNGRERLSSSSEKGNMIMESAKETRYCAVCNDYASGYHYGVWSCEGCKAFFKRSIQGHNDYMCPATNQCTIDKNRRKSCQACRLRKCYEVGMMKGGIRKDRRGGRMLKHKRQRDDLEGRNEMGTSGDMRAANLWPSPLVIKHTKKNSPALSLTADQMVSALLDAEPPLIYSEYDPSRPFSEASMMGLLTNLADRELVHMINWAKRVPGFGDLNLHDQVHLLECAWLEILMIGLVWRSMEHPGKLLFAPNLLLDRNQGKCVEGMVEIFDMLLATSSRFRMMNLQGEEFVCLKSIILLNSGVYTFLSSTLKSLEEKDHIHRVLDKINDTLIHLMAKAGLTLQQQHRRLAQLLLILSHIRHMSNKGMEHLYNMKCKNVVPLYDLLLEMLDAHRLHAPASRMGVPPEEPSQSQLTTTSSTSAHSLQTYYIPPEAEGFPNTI", "test": "ER-α transactivation, ERE-LUC in COS or 293 cells", "type": "cell-based", "set-up": "% estardiol activity, ER-α: dose or concentration left out as unconfirmed", "method": "FIG. 1: Effects of the indicated compounds on ER-α transactivation. COS or 293 cells plated in DME without phenol red+10% charcoal stripped fetal bovine serum (csFBS) at 90,000 cells per well of 24 well plates were transfected with 0.25 μg ERE-LUC, 0.02 μg CMV-LUC (Renilla) and 25 ng of ER-α by lipofectamine. Twenty four hours after transfection, the cells were treated as indicated in the figure, harvested 48 hrs after transfection and were assayed for firefly and renilla luciferase.\n(§1) FIG. 5: Effect of the indicated compounds on ER-α transactivation. COS or 293 cells plated in DME without phenol red+10% csFBS at 90,000 cells per well of a 24 well plate were transfected with 0.25 μg ERE-LUC, 0.02 μg CMV-LUC (Renilla) and 5 ng of ER-α by lipofectamine. Twenty four hours after transfection, the cells were treated as indicated in the figure, harvested 48 hrs after transfection and were assayed for firefly and renilla luciferase.\nas §1, with “FIG. 9:” for “FIG. 5:”, “csFBS” for “csFBS at 90,000 cells”, “and 25” for “and 5”\nAlso 25 ng of ER-α (FIGS. 1, 5, and 9), 50 ng of ER-β (FIGS. 2, 6 and 10) or 12.5 ng of AR (FIG. 3) were introduced by lipofectamine. All the receptors were cloned from rat tissue into the PCR3.1 vector backbone. […] Cells were harvested 48 hrs after transfection, and assayed for firefly and Renilla luciferase activity.\nAlso 25 ng of ER-α), 50 ng of ER-β or 12.5 ng of AR were introduced by lipofectamine. All the receptors were cloned from rat tissue into the PCR3.1 vector backbone. […] Cells were harvested 48 hrs after transfection, and assayed for firefly and Renilla luciferase activity."}, "osteoblasts": {"system": "osteoblasts", "test": "Osteoblast activity", "type": "cell-based"}, "uterus": {"system": "uterus", "test": "In vivo estrogenic activity, uterine weight", "set-up": "species or system rat", "conditions": "female rats, compound alone", "method": "Rats that were administered the vehicle alone served as controls."}, "[1]": {"system": "TRAP positive multinucleated osteoclasts", "test": "TRAP positive multinucleated osteoclasts from bone marrow cells", "type": "cell-based, rat", "conditions": "RANKL and GMCSF, 12 days", "method": "FIG. 7: Effect of the indicated compounds on TRAP positive multinucleated osteoclasts. Bone marrow cells from rat femur was cultured in Alpha MEM+10% csFBS without phenol red in the presence or absence of 30 ng/ml RANKL and 10 ng/ml GMCSF. The cells were treated for 12 days and were stained for tartarate resistant acid phosphatase activity (TRAP) and multinucleated osteoclasts were counted.\nBone marrow cells isolated from rat femur were cultured in Alpha MEM without phenol red+10% sterile FBS without phenol red in the presence or absence of […] RANKL and 10 ng/ml GMCSF. The cells were treated for 12 days were stained for tartarate resistant acid phosphatase activity (TRAP) positive multinucleated osteoclasts and were counted."}, "ER-β": {"target": "T2, ER-β (Rattus norvegicus, UniProt Q62986)", "T2 construct": "expressed in transfected cells; host or cells: COS or 293 cells", "T2 sequence (Q62986 whole entry)": "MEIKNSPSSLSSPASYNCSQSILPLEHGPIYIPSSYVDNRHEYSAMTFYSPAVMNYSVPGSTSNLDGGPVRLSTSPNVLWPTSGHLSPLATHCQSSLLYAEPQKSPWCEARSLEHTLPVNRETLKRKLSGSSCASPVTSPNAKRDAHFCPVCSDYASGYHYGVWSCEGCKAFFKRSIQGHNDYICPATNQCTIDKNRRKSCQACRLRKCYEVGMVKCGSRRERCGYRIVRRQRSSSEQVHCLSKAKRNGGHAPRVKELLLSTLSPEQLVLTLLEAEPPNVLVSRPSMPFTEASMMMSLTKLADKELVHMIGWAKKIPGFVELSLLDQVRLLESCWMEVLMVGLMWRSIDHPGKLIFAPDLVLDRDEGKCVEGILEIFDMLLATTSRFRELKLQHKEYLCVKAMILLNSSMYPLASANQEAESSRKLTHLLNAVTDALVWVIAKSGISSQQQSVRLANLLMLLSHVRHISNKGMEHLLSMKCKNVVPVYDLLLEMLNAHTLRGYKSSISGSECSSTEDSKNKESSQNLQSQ", "test": "ER-β transactivation, ERE-LUC in COS or 293 cells", "type": "cell-based", "conditions": "COS or 293 cells", "method": "as §1, with “FIG. 2:” for “FIG. 5:”, “on ER-β” for “on ER-α”, “and 50” for “and 5”, “of ER-β” for “of ER-α”\nas §1, with “FIG. 6:” for “FIG. 5:”, “on ER-β” for “on ER-α”, “and 50” for “and 5”, “of ER-β” for “of ER-α”, “and” for “and were”\nas §1, with “FIG. 10:” for “FIG. 5:”, “on ER-β” for “on ER-α”, “in DME+10%” for “in DME without phenol red+10%”, “and 50” for “and 5”, “of ER-β” for “of ER-α”\n(§2) All the receptors were cloned from rat tissue into the PCR3.1 vector backbone. […] Cells were harvested 48 hrs after transfection, and assayed for firefly and Renilla luciferase activity.\nas §2"}, "[2]": {"system": "pS2 (gene encoding the trefoil peptides) in MCF-7 cells", "test": "pS2 gene expression in MCF-7 cells (realtime RT-PCR)", "type": "cell-based", "conditions": "16 hrs", "method": "MCF-7 cells were plated at 500,000 cells per well of a 6 well plate. RNA was isolated and the message levels of pS2 (gene encoding the trefoil peptides) measured and normalized to 18S ribosomal RNA by realtime polymerase chain reaction (rtPCR).\nFIG. 11: Agonistic activity of the indicated compounds in MCF-7 cells. MCF-7 cells were plated at 500,000 cells per well of a 6 well plate. RNA was isolated and the message levels of pS2 gene measured and normalized to 18S ribosomal RNA by realtime rtPCR.\nMCF-7 cells were plated at 500,000 cells per well of a 6 well plate. The cells were serum starved for 3 days and then were treated as above for 16 hrs. RNA was isolated and gene expression levels assessed by realtime RT-PCR, following normalization to 18S ribosomal RNA."}, "PC-3 cells": {"system": "PC-3 cells", "test": "Androgen independent prostate cancer cell growth", "type": "cell-based", "conditions": "for PC-3 growth inhibition, qualitative grading: in vitro, data not shown", "method": "PC-3 cells were plated in RPMI+10% csFBS at 6000 cells per well of a 96 well plate. Medium was changed to RPMI+1% csFBS without phenol red and then treated for 72 hrs with increasing concentrations of SERMs.\nThe prostate cancer cell line PC-3 was plated in RPMI+10% csFBS at 6000 cells per well of a 96 well plate. Medium was changed to RPMI+1% csFBS without phenol red and cells were treated for 72 hrs with increasing concentrations of SERMs.\nPC-3 growth inhibition was determined qualitatively, in vitro, and represented as a grading system based on the ability of the SERMs to inhibit growth. The number −4 is for compounds that induced 100% growth inhibition at 1 uM, −3 for compounds that inhibit growth by about 75-90%, −2 for about 50-70% and −1 for inhibition less than 50% growth."}, "CCRF/CEM": {"system": "CCRF/CEM", "conditions": "estrogen receptor-negative cell line; cited from earlier work"}, "[3]": {"conditions": "rats; cited from earlier work"}, "[4]": {"type": "in vivo, human", "conditions": "80 mg/day"}, "[5]": {"conditions": "baseline to month 12, compared to placebo"}},
  "data": [
    {"smiles": "O=C(c1ccccc1)N(c1ccc(O)cc1)c1ccc(O)cc1", "note": "[Compound 3d, N,N-bis-(4-hydroxyphenyl)-benzamide]", "values": [
      {"measurement": "% estardiol activity, ER-α", "setting": "ER-α", "value": 48, "unit": "%"},
      {"measurement": "osteoblast activity", "setting": "osteoblasts", "value": "stimulated osteoblasts"},
      {"measurement": "estrogenic activity in terms of uterine weight", "setting": "uterus", "value": "exhibited estrogenic activity, in terms of increased uterine weight"},
      {"measurement": "osteoclast differentiation / osteoclast activity", "setting": "[1]", "value": "suppressed osteoclasts"}
    ]},
    {"smiles": "O=C(c1ccc(O)cc1)N(c1ccccc1)c1ccccc1", "note": "[Compound 3e, 4-hydroxy-N,N-diphenyl-benzamide]", "values": [
      {"measurement": "% estardiol activity, ER-α", "setting": "ER-α", "value": 133, "unit": "%"},
      {"measurement": "ER-α activity (luciferase expression), compound alone", "setting": "ER-α; COS or 293 cells", "value": "most potent in stimulating ER-α"},
      {"measurement": "ER-β LUC expression, compound alone", "setting": "ER-β", "value": "most potent in stimulating ER-β"},
      {"measurement": "osteoblast activity", "setting": "osteoblasts", "value": "stimulated osteoblast activity"},
      {"measurement": "estrogenic activity in terms of uterine weight", "setting": "uterus", "value": "exhibited no estrogenic, or anti-estrogenic activity in uterus"},
      {"measurement": "pS2 expression", "setting": "[2]", "value": "increased pS2 expression levels"},
      {"measurement": "osteoclast differentiation / osteoclast activity", "setting": "[1]", "value": "highly suppressive of osteoclast activity"}
    ]},
    {"smiles": "O=S(=O)(c1ccc(O)cc1)N(c1ccccc1)c1ccccc1", "note": "[Compound 3l, 4-hydroxy-N,N-diphenyl-phenyl-sulfonamide]", "values": [
      {"measurement": "PC-3 growth inhibition, qualitative grading", "setting": "PC-3 cells", "value": "−2 (−2 for about 50-70%)"},
      {"measurement": "estrogenic activity in terms of uterine weight", "setting": "uterus", "value": "exhibited no estrogenic, or anti-estrogenic activity in uterus"},
      {"measurement": "pS2 expression", "setting": "[2]", "value": "increased pS2 expression levels"}
    ]},
    {"smiles": "CCN(CC)CCOc1ccc(C(=C(Cl)c2ccccc2)c2ccccc2)cc1", "note": "[clomiphene]", "values": [
      {"measurement": "viability of CCRF/CEM cells", "setting": "CCRF/CEM", "value": "cause a decrease in viability"}
    ]},
    {"smiles": "C[C@]12CC[C@@H]3c4ccc(O)cc4CC[C@H]3[C@@H]1CC[C@@H]2O", "note": "[estrogen, Estradiol, reference compound]", "values": [
      {"measurement": "incidence of lipo-polysaccharide induced inflammatory responses", "setting": "[3]", "value": "reduce the incidence of lipo-polysacharride induced inflammatory responses"},
      {"measurement": "pS2 expression", "setting": "[2]", "value": "increased pS2"},
      {"measurement": "osteoclast differentiation / osteoclast activity", "setting": "[1]", "value": "strongly suppressed osteoclast differentiation"}
    ]},
    {"smiles": "COc1ccc2c(c1)CCC(c1ccccc1)=C2c1ccc(OCCN2CCCC2)cc1", "note": "[nafoxidine]", "values": [
      {"measurement": "viability of CCRF/CEM cells", "setting": "CCRF/CEM", "value": "cause a decrease in viability"}
    ]},
    {"smiles": "CC/C(=C(\\c1ccccc1)c1ccc(OCCN(C)C)cc1)c1ccccc1", "note": "[tamoxifen]", "values": [
      {"measurement": "viability of CCRF/CEM cells", "setting": "CCRF/CEM", "value": "cause a decrease in viability"},
      {"measurement": "incidence of lipo-polysaccharide induced inflammatory responses", "setting": "[3]", "value": "reduce the incidence of lipo-polysacharride induced inflammatory responses"}
    ]},
    {"smiles": "CN(C)CCOc1ccc(/C(=C(/CCCl)c2ccccc2)c2ccccc2)cc1", "note": "[toremifene]", "values": [
      {"measurement": "inhibition at 10 µM", "setting": "PC-3 cells; Homo sapiens, PC-3, 10 μM, 72 hrs", "value": 100, "unit": "%"},
      {"measurement": "PC-3 growth inhibition, qualitative grading", "setting": "PC-3 cells", "value": "−2 (−2 for about 50-70%)"},
      {"measurement": "serum lipid parameters overall", "setting": "[4]", "value": "statistically significant improvement in all serum lipid parameters measured"},
      {"measurement": "change in HDL levels", "setting": "[4]; [5]", "value": "+5.4%"},
      {"measurement": "change in LDL", "setting": "[4]; [5]", "value": "−9.0", "unit": "%"},
      {"measurement": "change in total circulating cholesterol", "setting": "[4]; [5]", "value": "−7.1", "unit": "%"},
      {"measurement": "change in triglyceride levels", "setting": "[4]; [5]", "value": "−20.1", "unit": "%"},
      {"measurement": "osteoclast differentiation / osteoclast activity", "setting": "[1]", "value": "minimally but dose-dependently suppressed the osteoclast differentiation"}
    ]}
  ]
}
